Earlier results, collected in patent publication US6689338B2, “Bioconjugates of nanoparticles as radiopharmaceuticals” (The Board of Regents for Oklahoma State University, priority 2000, dated 2004).

Tested on: tumor
Details: in vivo

Structure (SMILES): O=C([O-])CN(CCN(CC(=O)[O-])CC(=O)[O-])CCN(CC(=O)[O-])CC(=O)[O-].[111In+3].[H+].[H+]
- liver background: high liver background
